Results from patent US9156827B2, “Anticancer agent” (THE UNIVERSITY OF TOKYO, priority 2010, dated 2015).

Legend:
pim-1 kinase = pim-1 kinase (Homo sapiens, UniProt P11309); assay: Measurement of pim-1 kinase inhibitory activity (fluorescent substrate peptide, capillary electrophoresis); type: biochemical; conditions: 0.1 μM of each compound, 30 μM ATP, 1.5 μM substrate peptide, room temperature 2 hours
Procedure: Measurement of Pim-1 Kinase Inhibitory Activity
The result of the reaction was determined by quantifying the substrate and the phosphorylated reaction product separated by capillary electrophoresis based on difference in charges of the substances (EZ Reader II, Caliper Life Sciences, was used).

[1] = test system: Human acute myeloid leukemia MV4-11 cells; assay: Cell proliferation-suppressing activity, chromogenic method (MTT assay); type: cell-based; conditions: 72 h, compound 1 μM, MTT assay three days after addition, Table 4
Procedure: (§1) Measurement of Cell Proliferation-Suppressing Activity (Chromogenic Method)
Human acute myeloid leukemia MV4-11 cells (10^4 cells) were inoculated on a 96-well microtiter plate, each compound was added at a final concentration of 1 μM 24 hours afterward, and MTT assay was performed three days after the addition of the compound to measure the cell proliferation-suppressing activity.

[2] = test system: Human acute myeloid leukemia MV4-11 cells; assay: Cell proliferation-suppressing activity, chromogenic method (Cell Counting Kit-8); type: cell-based; conditions: compound 1 μM, 48 hours, Cell Counting Kit-8, absorbance 450 nm
Procedure: as §1
Human acute myeloid leukemia MV4-11 cells (2×10^4 cells) are inoculated on a 96-well microtiter plate. Each compound is added at a final concentration of 1 μM on the next day, and the cells are cultured for additional 48 hours. Absorbance is measured at 450 nm by using Cell Counting Kit-8 (Nacalai Tesque) to calculate the cell proliferation-suppressing activity.

Sequence of pim-1 kinase (P11309 whole entry): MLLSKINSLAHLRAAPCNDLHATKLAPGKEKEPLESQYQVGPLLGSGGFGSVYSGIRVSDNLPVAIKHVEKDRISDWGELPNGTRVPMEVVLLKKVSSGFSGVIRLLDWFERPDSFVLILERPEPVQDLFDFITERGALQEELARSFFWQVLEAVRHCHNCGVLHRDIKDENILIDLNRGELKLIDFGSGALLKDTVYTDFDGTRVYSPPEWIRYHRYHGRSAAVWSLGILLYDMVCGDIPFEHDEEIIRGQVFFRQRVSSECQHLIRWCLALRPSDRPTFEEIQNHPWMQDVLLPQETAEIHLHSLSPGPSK

| inhibition at 0.1 µM (pim-1 kinase; Table 2) [%] | inhibition at 0.1 µM (pim-1 kinase; Table 1) [%] | SMILES | inhibition at 1 µM [1] [%] | inhibition at 1 µM ([2]; Table 7) [%] | inhibition at 1 µM ([2]; Table 6) [%] |
| --- | --- | --- | --- | --- | --- |
| 85 | – | COc1ccc2c(c1C(=O)N1CCNCC1)O/C(=C\c1n[nH]c3ccccc13)C2=O [Compound B37, (Z)-2-[(1H-Indazol-3-yl)methylene]-6-methoxy-7-(piperazine-1-carbonyl)benzofuran-3(2H)-one] | 76 | – | – |
| 84 | – | COc1ccc2c(c1/C=C\CN1CCNCC1)O/C(=C\c1n[nH]c3ccccc13)C2=O [Compound B47, (Z)-2-[(1H-Indazol-3-yl)methylene]-6-methoxy-7-[(Z)-3-(piperizin-1-yl)prop-1-enyl]benzofuran-3(2H)-one (Z)-2-[(1H-Indazol-3-yl)methylene]-6-methoxy-7-[(Z)-3-(piperazin-1-yl)prop-1-enyl]benzofuran-3(2H)-one] | – | 99 | – |
| 90 | – | COc1ccc2c(c1C#CCC1CCNCC1)O/C(=C\c1n[nH]c3ccccc13)C2=O [Compound B58, (Z)-2-[(1H-Indazol-3-yl)methylene]-6-methoxy-7-[3-(piperidin-4-yl)prop-1-ynyl]benzofuran-3(2H)-one] | – | 94 | – |
| 36 | – | COc1ccc2c(c1C1CCNCC1)O/C(=C\c1n[nH]c3ccccc13)C2=O [Compound B53, (Z)-2-[(1H-Indazol-3-yl)methylene]-6-methoxy-7-(piperidin-4-yl)benzofuran-3(2H)-one] | – | 98 | – |
| 89 | – | COc1ccc2c(c1CCC1CCNCC1)O/C(=C\c1n[nH]c3ccccc13)C2=O [Compound B57, (Z)-2-[(1H-Indazol-3-yl)methylene]-6-methoxy-7-[2-(piperidin-4-yl)ethyl]benzofuran-3(2H)-one] | – | 99 | – |
| 71 | – | COc1ccc2c(c1/C=C\CCC1CCNCC1)O/C(=C\c1n[nH]c3ccccc13)C2=O [Compound B62, (Z)-2-[(1H-Indazol-3-yl)methylene]-6-methoxy-7-[(Z)-4-(piperidin-4-yl)but-1-enyl]benzofuran-3(2H)-one] | – | 93 | – |
| 63 | – | COc1ccc2c(c1C#CCCN1CCNCC1)O/C(=C\c1n[nH]c3ccccc13)C2=O [Compound B49, (Z)-2-[(1H-Indazol-3-yl)methylene]-6-methoxy-7-[4-(piperazin-1-yl)but-1-ynyl]benzofuran-3(2H)-one] | – | 93 | – |
| 95 | – | COc1ccc2c(c1CCCC1CCNCC1)O/C(=C\c1n[nH]c3ccccc13)C2=O [Compound B60, (Z)-2-[(1H-Indazol-3-yl)methylene]-6-methoxy-7-[3-(piperidin-4-yl)propyl]benzofuran-3(2H)-one] | – | 98 | – |
| 95 | – | COc1ccc2c(c1CCCCC1CCNCC1)O/C(=C\c1n[nH]c3ccccc13)C2=O [Compound B63, (Z)-2-[(1H-Indazol-3-yl)methylene]-6-methoxy-7-[4-(piperidin-4-yl)butyl]benzofuran-3(2H)-one] | – | 95 | – |
| 84 | – | COc1ccc2c(c1C#CC1CCNCC1)O/C(=C\c1n[nH]c3ccccc13)C2=O [Compound B55, (Z)-2-[(1H-Indazol-3-yl)methylene]-6-methoxy-7-(piperidin-4-ylethynyl)benzofuran-3(2H)-one] | – | 99 | – |
| 70 | – | COc1ccc2c(c1C#CCCC1CCNCC1)O/C(=C\c1n[nH]c3ccccc13)C2=O [Compound B61, (Z)-2-[(1H-Indazol-3-yl)methylene]-6-methoxy-7-[4-(piperidin-4-yl)but-1-ynyl]benzofuran-3(2H)-one] | – | 97 | – |
| 86 | – | COc1ccc2c(c1C#CCN1CCNCC1)O/C(=C\c1n[nH]c3ccccc13)C2=O [Compound B46, (Z)-2-[(1H-Indazol-3-yl)methylene]-6-methoxy-7-[3-(piperazin-1-yl)prop-1-ynyl]benzofuran-3(2H)-one] | – | 97 | – |
| 46 | – | COc1ccc2c(c1C#CC(C)(C)N1CCNCC1)O/C(=C\c1n[nH]c3ccccc13)C2=O [Compound B67, (Z)-2-[(1H-Indazol-3-yl)methylene]-6-methoxy-7-[3-methyl-3-(piperazin-1-yl)but-1-ynyl]benzofuran-3(2H)-one] | – | 96 | – |
| 75 | – | COc1ccc2c(c1CCCN1CCNCC1)O/C(=C\c1n[nH]c3ccccc13)C2=O [Compound B48, (Z)-2-[(1H-Indazol-3-yl)methylene]-6-methoxy-7-[3-(piperazin-1-yl)propyl]benzofuran-3(2H)-one] | – | 96 | – |
| 73 | – | COc1ccc2c(c1/C=C/CC1CCNCC1)O/C(=C\c1n[nH]c3ccccc13)C2=O [Compound B65, (Z)-2-[(1H-Indazol-3-yl)methylene]-6-methoxy-7-[(E)-3-(piperidin-4-yl)prop-1-enyl]benzofuran-3(2H)-one] | – | 97 | – |

The next lines start with the compound.

| SMILES | inhibition at 0.1 µM (pim-1 kinase; Table 2) [%] | inhibition at 0.1 µM (pim-1 kinase; Table 1) [%] | inhibition at 1 µM [1] [%] | inhibition at 1 µM ([2]; Table 7) [%] | inhibition at 1 µM ([2]; Table 6) [%] |
| --- | --- | --- | --- | --- | --- |
| O=C1/C(=C/c2n[nH]c3ccccc23)Oc2c1ccc(OCCOc1ccccc1)c2CN1CCNCC1 [Compound B31, (Z)-2-((1H-Indazol-3-yl)methylene)-6-(2-phenoxyethoxy)-7-(piperazin-1-ylmethyl)benzofuran-3(2H)-one] | 95 | – | 84 | – | – |
| COc1ccc2c(c1CN1CCNCC1)O/C(=C\c1n[nH]c3ccc(Cl)cc13)C2=O [Compound B18, (Z)-2-[(5-Chloro-1H-indazol-3-yl)methylene]-6-methoxy-7-(piperazin-1-ylmethyl)benzofuran-3(2H)-one] | 95 | – | 87 | – | – |
| O=C1/C(=C/c2c[nH]c3ccccc23)Oc2c(CN3CCNCC3)cccc21 [Compound A56, (Z)-2-[(1H-indol-3-yl)methylene]-7-(piperazin-1-ylmethyl)benzofuran-3(2H)-one] | – | 80 | – | – | 43 |
| COc1ccc2c(c1CCCCN1CCNCC1)O/C(=C\c1n[nH]c3ccccc13)C2=O [Compound B51, (Z)-2-[(1H-Indazol-3-yl)methylene]-6-methoxy-7-[4-(piperazin-1-yl)butyl]benzofuran-3(2H)-one] | 86 | – | – | 94 | – |
| O=C1/C(=C/c2n[nH]c3ncccc23)Oc2c(CN3CCNCC3)cccc21 [Compound B70, (Z)-2-[(1H-Pyrazolo[3,4-b]pyridin-3-yl)methylene]-7-(piperazin-1-ylmethyl)benzofuran-3(2H)-one] | 94 | – | – | 77 | – |
| O=C1/C(=C/c2c[nH]c3ccccc23)Oc2c1ccc(O)c2CN1CCCNCC1 [Compound A55, (Z)-7-[(1,4-Diazepan-1-yl)methyl]-2-[(1H-indol-3-yl)methylene]-6-hydroxybenzofuran-3(2H)-one] | – | 46 | – | – | 79 |
| COc1ccc2c(c1CN1CCNCC1)O/C(=C\c1n[nH]c3ncccc13)C2=O [Compound B69, (Z)-2-[(1H-Pyrazolo[3,4-b]pyridin-3-yl)methylene]-6-methoxy-7-(piperazin-1-ylmethyl)benzofuran-3(2H)-one] | 95 | – | – | 100 | – |
| O=C1/C(=C/c2c[nH]c3ccccc23)Oc2c1ccc(OCc1ccccc1)c2CN1CCNCC1 [Compound A61, (Z)-2-[(1H-Indol-3-yl)methylene]-6-(benzyloxy)-7-(piperazin-1-ylmethyl)benzofuran-3(2H)-one] | – | 66 | – | – | 58 |
| COc1ccc2c(c1CC1CCNCC1)O/C(=C\c1n[nH]c3ncccc13)C2=O [Compound B71, (Z)-2-[(1H-Pyrazolo[3,4-b]pyridin-3-yl)methylene]-6-methoxy-7-(piperidin-4-ylmethyl)benzofuran-3(2H)-one] | 95 | – | – | 100 | – |
| CCCOc1ccc2c(c1CN1CCNCC1)O/C(=C\c1c[nH]c3ccccc13)C2=O [Compound A60, (Z)-2-((1H-Indol-3-yl)methylene)-7-(piperazin-1-ylmethyl)-6-propoxybenzofuran-3(2H)-one] | – | 84 | – | – | 91 |
| COc1ccc2c(c1CN1CCNCC1)O/C(=C\c1cn(S(=O)(=O)c3ccc(C)cc3)c3ccccc13)C2=O [Compound A57, (Z)-6-Methoxy-7-(piperazin-1-ylmethyl)-2-[(1-tosyl-1H-indol-3-yl)methylene]benzofuran-3(2H)-one] | – | 28 | – | – | 37 |
| COc1ccc2c(c1CCC1CCNCC1)O/C(=C\c1n[nH]c3ncccc13)C2=O [Compound B72, (Z)-2-[(1H-Pyrazolo[3,4-b]pyridin-3-yl)methylene]-6-methoxy-7-[2-(piperidin-4-yl)ethyl]benzofuran-3(2H)-one] | 97 | – | – | 93 | – |
| O=C1/C(=C/c2c[nH]c3ncccc23)Oc2c(CN3CCNCC3)cccc21 [Compound A58, (Z)-2-[(1H-Pyrrolo[2,3-b]pyridin-3-yl)methylene]-7-(piperazin-1-ylmethyl)benzofuran-3(2H)-one] | – | 92 | – | – | 72 |
| COc1c(F)cc2c(c1CCC1CCNCC1)O/C(=C\c1n[nH]c3ccccc13)C2=O [Compound B66, (Z)-2-[(1H-Indazol-3-yl)methylene]-5-fluoro-6-methoxy-7-[2-(piperidin-4-yl)ethyl]benzofuran-3(2H)-one] | 89 | – | – | 88 | – |
